Drawing on BindingDB's records for doi:10.1016/j.ejmech.2019.111921 (University of Kwazulu-Natal, 2020), this text covers IC50 for three compounds.

Structures are written as SMILES.

Assay [1] concerns the target T1, Beta-glucuronidase (Homo sapiens, UniProt P08236).
T1 sequence (P08236 whole entry): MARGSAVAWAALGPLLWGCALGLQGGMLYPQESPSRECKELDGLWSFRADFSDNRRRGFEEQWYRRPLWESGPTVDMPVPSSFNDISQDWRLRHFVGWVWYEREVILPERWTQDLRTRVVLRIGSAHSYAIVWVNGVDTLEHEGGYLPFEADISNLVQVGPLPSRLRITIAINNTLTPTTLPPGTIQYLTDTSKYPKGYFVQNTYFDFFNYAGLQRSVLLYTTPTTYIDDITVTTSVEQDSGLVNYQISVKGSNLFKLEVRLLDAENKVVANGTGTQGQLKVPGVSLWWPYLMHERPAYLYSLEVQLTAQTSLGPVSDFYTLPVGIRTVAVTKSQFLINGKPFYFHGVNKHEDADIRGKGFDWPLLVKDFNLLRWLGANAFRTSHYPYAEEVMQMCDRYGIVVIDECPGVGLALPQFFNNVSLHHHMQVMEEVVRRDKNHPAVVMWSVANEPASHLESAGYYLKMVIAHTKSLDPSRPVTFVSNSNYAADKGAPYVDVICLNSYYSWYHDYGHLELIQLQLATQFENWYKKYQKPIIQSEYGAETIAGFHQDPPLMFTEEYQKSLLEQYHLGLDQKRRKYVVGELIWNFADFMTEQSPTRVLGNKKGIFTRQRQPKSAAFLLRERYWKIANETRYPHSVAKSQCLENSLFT
As to the kind of experiment: Inhibition of beta-glucuronidase (unknown origin).

The target of assay [2] is T2, Beta-glucuronidase (Rattus norvegicus, UniProt P06760).
T2 sequence (P06760 whole entry): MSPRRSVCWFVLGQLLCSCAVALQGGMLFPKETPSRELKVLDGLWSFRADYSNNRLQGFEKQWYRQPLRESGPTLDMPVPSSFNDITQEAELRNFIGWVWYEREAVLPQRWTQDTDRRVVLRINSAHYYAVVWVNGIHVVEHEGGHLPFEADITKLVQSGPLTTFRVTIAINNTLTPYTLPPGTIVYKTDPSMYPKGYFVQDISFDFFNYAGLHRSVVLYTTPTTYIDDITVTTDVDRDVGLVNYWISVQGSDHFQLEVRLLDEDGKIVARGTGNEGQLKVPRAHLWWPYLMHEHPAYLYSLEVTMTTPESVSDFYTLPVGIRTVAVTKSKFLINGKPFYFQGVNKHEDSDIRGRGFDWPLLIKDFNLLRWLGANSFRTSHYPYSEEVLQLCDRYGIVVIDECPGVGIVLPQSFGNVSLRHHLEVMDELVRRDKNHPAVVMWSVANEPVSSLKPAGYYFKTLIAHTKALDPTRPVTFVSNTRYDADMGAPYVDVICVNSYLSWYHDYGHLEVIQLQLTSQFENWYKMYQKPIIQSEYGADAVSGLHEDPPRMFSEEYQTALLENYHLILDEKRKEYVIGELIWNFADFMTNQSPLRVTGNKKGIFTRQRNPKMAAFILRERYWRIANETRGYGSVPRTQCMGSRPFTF
Nature of the assay: Inhibition of degranulated rat neutrophils beta-glucuronidase.

Assay [3] deals with T2, Beta-glucuronidase. Nature of the assay: Inhibition of degranulated rat peritoneal mast cells beta-glucuronidase.

As usually defined, the IC50 is the concentration that gives 50% inhibition. A low value points to greater potency. With `COc1cc([C@@H]2Oc3cc([C@H]4Oc5cc(O)cc(O)c5C(=O)[C@@H]4O)ccc3O[C@H]2CO)ccc1O` [Silybin B], the IC50 in assay [1] stood at 1640 µM.

`C/C(=C/Cc1c(O)ccc(C(=O)/C=C/c2ccc(O)cc2)c1O)COC(=O)/C=C/c1ccc(O)cc1` [gemichalcones B]: the IC50 in assay [2] was found to be 5.8 µM.

As for `COc1cc(/C=C/C(=O)OC/C(C)=C\Cc2c(O)ccc(C(=O)/C=C/c3ccc(O)cc3)c2O)ccc1O` [Gemichalcone A], the 50% inhibitory concentration (IC50) in assay [2] worked out at 6.6 µM; in assay [3], 70 µM.
